# Reference: patent EP2157088A1, “INDICYANINE DYES AND THE DERIVATIVES THEREOF FOR ANALYSING BIOLOGICAL MICROMOLECULES” (UCHREZHDENIE ROSSIISKOI AKADEMII NAUK INSTITUT …, priority 2007, dated 2008)
# What was measured:
# [1] = Quantum efficiency of fluorescence, measured versus a reference dye; format: physicochemical
# Method: For all indodicarbocyanine dyes (I) (A1) - (A30) and (B1) - (B7) of the invention, there are determined the quantum efficiency of fluorescence in methanol and in aqueous phosphate buffered saline (Table 1, Fig. 3). The measurements are performed versus dyes of formula (I) (R1= -CH3, R2= R6= -SO3^-; R3= -(CH2)5COOH, R4= -C2H5, R5= -H) whose quantum efficiency of fluorescence in PBS is 0.27 (Mader O., K. Reider, H.-J. Egelhaaaf, R, Fischer, R. Brock, Structure Properties of Pentamethine Indocyanine Dyes: Identification of New Dyes for Life Science Applications. Bioconjugate Chem, 2004, vol. 15, pp. 70-78). In methanol, dyes (A10, A22, A25, A29, A30) have the upper-range of quantum efficiency of fluorescence (Φ ∼ 0.3), but in PBS, dyes (A10, A22, A25, A29, A30) have the maximal Φ -value.
# [2] = format: physicochemical
# Source text: Subject to substituent at the heterocyclic moiety, dyes of formulae (A) and (B) proposed are distinguished by a spectral range of excitation and fluorescence, by the total electrical charge, and water solubility (Table 1).
# [3] = Absorption and fluorescence maxima of the dyes; format: physicochemical
# Source text: An insertion of methyl group at 5- and 7-positions of indolenyne cycle produces a bathochromic shift in the absorption and fluorescent spectra. As to the rest sulfur containing dyes, the spectral characteristics thereof appear to be in the same range (between about λmax 648 nm and λem 669 nm) (Fig. 1),
# [4] = Molar extinction coefficient in methanol and PBS; format: physicochemical; parameters: ε·10^-5: unit not given here
# Method: For all indodicarbocyanine dyes (I) (A1) - (A30) and (B1) - (B7) of the invention, there are determined the molar extinction coefficients in methanol and in aqueous phosphate buffered saline (PBS) (10 mM potassium phosphate buffer, sodium chloride concentration is 0.9%, pH 7.4). In methanol, indodicarbocyanine (A1, A8, A10-A12, A17, A23) has the upper-range of molar extinction coefficient (ε >[…]). In aqueous phosphate buffered saline (PBS), dyes (A10, A23, A30) have the maximal ε-value (Fig. 2).
# [5] = Relative efficiency of fluorescence / absolute sensitivity of label, normalized to dye A30 in PBS; format: physicochemical; settings: for Sensitivity of record 635/ 670: excitation 635 nm, record 670 nm; for Sensitivity of record 655/ 690: excitation 655 nm, record 690 nm; for Sensitivity of record max/ max: excitation and record in absorption and fluorescence maxima, ε*Φ normalized to A30 in PBS
# Source text: The data obtained were as follows: • on excitation and record in absorption and fluorescence maxima, the relative efficiency of fluorescence exceeds 0.80 for dyes (A10), (A22), (A23), (A25), and (A30) in methanol and for dyes (A22), (A25), and (A30) in PBS (Table 1, Fig. 4), whereas for dyes of formula (I) (R1 = -CH3, R2= R6= -SO3^-; R3= -(CH2)5COOH, R4= -C2H5; R5= -H) the values are 0.69 in methanol and 0.67 in PBS; • on excitation at wavelength 655 nm and record at 690 nm, the relative efficiency of fluorescence exceeds 0.25 for dyes (A25) and (A30) in methanol and is higher than 0.18 for dyes (A24) and (A30) in PBS (Table 1, Fig. 5), whereas for dyes of formula (I) (R1 = -CH3, R2 = R6= -SO3^-; R3= -(CH2)5COOH, R4= -C2H5; R5= -H) the values are 0.18 in methanol and 0.11 in PBS; • on excitation at wavelength 635 nm and record at 670 nm, the relative efficiency of fluorescence exceeds 0.50 for dyes (A1), (A11), (A23) in methanol and is higher than 0.45 for dyes (A22), (A25), and (A30) in PBS (Table 1, Fig. 6), whereas for dyes of formula (I) (R1= -CH3, R2= R6= -SO3^-; R3= -(CH2)5COOH, R4= -C2H5; R5= -H) the values are 0.44 in methanol and 0.38 in PBS.
# Term sensitivity of fluorescent analysis is defined by the absolute sensitivity of label that may be represented as the product of molar extinction coefficient by quantum efficiency of fluorescence (ε*Φ). Thus, there are determined the absolute sensitivity of indodicarbocyanines (A1-A30, B1-B7) in appropriate absorption and fluorescence maxima in methanol and in aqueous phosphate buffered saline. The values are normalized to the maximal value obtained for dye (A30) in PBS (Table 1). In methanol, dyes (A10, A22, A23, A25, A30) have the upper-range of absolute sensitivity, but in PBS, dyes (A10, A22, A25, A29, A30) have the maximal values of sensitivity (Fig. 4).
# To determine the most appropriate dyes for instrument setting, there are measured the relative efficiency of fluorescence of dyes at wavelength of excitation and record of the instrument (655 nm. / 690 nm). The maximal values appear to be specific to dyes (A25) and (A30) in methanol, and to dyes (A19, A22, A25, A29, A30) in PBS (Table 1, Fig. 5).
# There are also measured the relative efficiency of fluorescence at wavelength of excitation and record of the instrument (635 nm / 670 nm). The maximal values appear to be specific to dyes (A1, A10, A11, A23) in methanol, and to dyes (A10, A22, A25, A29, A30) in PBS (Table 1, Fig. 6).
# [6] = PBS (10 mM potassium phosphate buffer, 0.9% sodium chloride, pH 7.4)
Φ (quantum efficiency of fluorescence) ([1]; MeOH),λmax^abs ([3]; MeOH) [nm],λmax^em ([3]; MeOH) [nm],λmax^abs ([3]; PBS) [nm],λmax^em ([3]; PBS) [nm],ε·10^-5 ([4]; MeOH),"ε·10^-5 [4, 6]",Φ (quantum efficiency of fluorescence) ([1]; PBS),Sensitivity of record 635/ 670 ([5]; MeOH),Sensitivity of record 655/ 690 ([5]; MeOH),Sensitivity of record max/ max ([5]; MeOH),Sensitivity of record 635/ 670 ([5]; PBS),Sensitivity of record 655/ 690 ([5]; PBS),Sensitivity of record max/ max ([5]; PBS),Compound,water solubility [2]
~0.3,,,,,,,,,,,,,,"5,5'-disulfo-N,N'-di(4-sulfobutyl)-3-(4-carboxybutyl)-3,3',3'-trimethylindodicarbocyanine, trisodium salt [A30]",very good water solubility
0.12,652,670,650,665,1.93±0.01,1.84±0.01,0.08,0.210,0.138,0.314,0.132,0.069,0.199,"CC[N+]1=C(/C=C/C=C/C=C2/N(CCCCS(=O)(=O)[O-])c3ccccc3C2(C)CCCCC(=O)O)C(C)(C)c2cc(C)cc(C)c21 (centres unmarked) [A3, 3-(4-Carboxybutyl)-3,3',3',5',7'-pentamethyl-N-(4-sulfobutyl)-N'-ethylindodicarbocyanine]",
,,,,,,,,,,,,,,"CC1(C)C(=CC=CC=CC2=[N+](CCCCS(=O)(=O)[O-])c3ccc(CCC(=O)O)cc3C2(C)C)N(CCCCS(=O)(=O)[O-])c2ccc(S(=O)(=O)[O-])cc21.[Na+].[Na+] [B7, N,N'-disulfobutyl-5-carboxyethyl-5'-sulfo-3,3,3',3'-tetramethylindodicarbocyanine, disodium salt]",very good water solubility
0.23,648,663,646,659,2.07±0.03,1.91±0.02,0.15,0.424,0.124,0.627,0.229,0.052,0.385,"CCN1/C(=C/C=C/C=C/C2=[N+](CC)c3ccccc3C2(C)C)C(C)(CCCCC(=O)O)c2cc(S(=O)(=O)[O-])ccc21 (centres unmarked) [A9, N,N'-diethyl-3-(4-carboxybutyl)-5-sulfo-3,3',3'-trimethylindodicarbocyanine]",
0.17,649,667,647,662,2.01±0.01,1.99±0.03,0.09,0.320,0.149,0.442,0.184,0.068,0.261,"CC[N+]1=C(/C=C/C=C/C=C2/N(CCCCS(=O)(=O)[O-])c3ccccc3C2(C)CCCCC(=O)O)C(C)(C)c2cc(C)ccc21 (centres unmarked) [A2, 3-(4-Carboxybutyl)-N-(4-sulfobutyl)-3,3',3',5'-tetramethyl-N'-ethylindodicarbocyanine]",
0.11,654,672,656,676,2.13±0.03,1.82±0.03,0.07,0.151,0.198,0.292,0.089,0.085,0.170,"CC[N+]1=C(/C=C/C=C/C=C2/N(CCCCS(=O)(=O)[O-])c3ccc(C)cc3C2(C)CCCCC(=O)O)C(C)(C)c2cc(C)cc(C)c21 (centres unmarked) [A6, 3,3',3',5,5'.7'-hexamethyl-3-(4-carboxybutyl)-N-(4-sulfobutyl)-N'-ethylindodicarbocyanine]",
